In patent US20190247376A1, “NICOTINIC ACETYLCHOLINE RECEPTOR AGONIST ATTENUATES ILC2-DEPENDENT AIRWAY HYPERREACTIVITY” (University of Southern California, priority 2016, published 2019):

Test system: BALB/cByJ and α7nAChR−/− mice
Test: IL-33-induced AHR in WT and α7nAChR-deficient mice
Type: in vivo, mouse
Settings: rm-IL-33, agonist 125 μg days 1-3
Method: FIGS. 4A-4E: α7nAChR expression is critical for GTS-21 action on ILC2s in vivo. BALB/cByJ and α7nAChR^−/− mice were intranasally challenged with rm-IL-33 or PBS, and also given α7nAChR agonist (125 μg) or PBS on days 1-3. Measurement of lung function and analysis of BAL followed on day 4. (FIG. 4A) Lung resistance. (FIG. 4B) Total number of eosinophils in BALF. (FIG. 4C) Rag^−/− GC^−/− mice were received ILC2s from either WT or α7nAChR^−/− mice. After the adoptive transfer, mice were intranasally challenged with rm-IL-33 or PBS; they also received α7nAChR agonist (125 μg) or PBS on days 1-3. Measurement of lung function and analysis of BAL followed on day 4, according to scheme 4C. (FIG. 4D) Lung resistance. (FIG. 4E) Total number of eosinophils in BALF. Data are representative of at least three independent experiments and are presented as means±SEM (n=4; Student's test ***, p<0.001, WT IL-33+α7nAChR agonist vs. α7nAChR^−/− IL-33+α7nAChR agonist).
To assess whether the previously observed effects of GTS-21 are due to its actions on the α7nAChR, Applicants challenged WT and α7nAChR-deficient mice with or without rm-IL-33, and with or without α7nAChR agonist, for three consecutive days (FIGS. 4A-4B). As expected, in the WT mice, the agonist repressed IL-33-induced AHR and eosinophilic infiltration.
Mice were intranasally (i.n.) administered carrier-free recombinant mouse IL-33 (BioLegend, San Diego Calif., 0.5 µg per mouse in 50 µL) with or without […] of α7nAChR agonist (kindly provided by Lin Chen) on three consecutive days. Mice were intranasally (i.n.) administered carrier-free recombinant mouse IL-25 (BioLegend, San Diego Calif., 5 µg per mouse in 50 µL) with or without […] of α7nAChR agonist on three consecutive days. For Alternaria alternata experiments, mice were i.n. administered Alternaria alternata (Greer Labs, Lenoir, N.C., 100 μg per mouse in 50 μL) with or without 125 µg α7nAChR agonist for four consecutive days. One day after the last challenge, mice were anesthetized using i.p. injection of ketamine (10 mg mL^−1) and xylazine (1 mg mL^−1). Measurements of airway resistance and dynamic compliance were conducted with the Fine Pointe RC System (Buxco Research Systems, Wilmington, N.C.), in which mice were mechanically ventilated using a modified version as previously described^36,67. Mice were sequentially challenged with aerosolized PBS (baseline), followed by increasing doses of methacholine. Maximum lung resistance (RL) and minimum compliance (Cdyn) values were recorded during a three-minute period after each methacholine challenge.

Which results are given for `COc1ccc(/C=C2\CCCN=C2c2cccnc2)c(OC)c1` [GTS-21, 3-[(3E)-3-[(2,4-dimethoxyphenyl)methylidene]-5,6-dihydro-4H-pyridin-2-yl]pyridine]?
IL-33-induced AHR (WT mice): repressed; eosinophilic infiltration (WT mice): repressed; IL-33-induced AHR (α7nAChR-deficient mice): affected neither AHR nor eosinophilia; eosinophilia (α7nAChR-deficient mice): affected neither AHR nor eosinophilia
